Where two headings read alike, the source gives them in different places.
Legend:
NFκB [1] = assay: NFκB inhibition assay (2 h), NFκB-dependent nanoluc luciferase reporter; assay type: cell-based, human
Description: Experiments were performed according to the published protocol. On day 1, 4 × 10^4 NFκB-MDA-MB-231-nanoluc cells were seeded into white 96 well plates (Greiner; #655098). On day 2, the medium was replaced with starvation medium and the cells were pre-incubated for 20 min with either 100 µL of DMSO (Roth; #A994.1) alone at a concentration of maximal 0.1% or with the final concentration of the diluted compounds (Table 3). To activate NFκB signaling, cells were stimulated with 1 µg/mL LPS (Sigma-Aldrich; #L2630) beforehand. NFκB-dependent luciferase activity was measured according to the manufacturer`s protocol for the Nano-Glo Luciferase Assay System (Promega, Mannheim, Germany; #N1110). NFκB-dependent luminescence was determined as relative light units (RLU) using the microplate reader Spark® (Tecan, Männedorf, Switzerland).

NFκB [2] = assay: NFκB inhibition assay (24 h), NFκB-dependent firefly luciferase reporter; assay type: cell-based; settings: Homo sapiens, read-out: NFκB Inhibition 24 h IC50
Description: On day 1, 3 × 10^4 NFκB MDA-MB-231-firefly cells were seeded into white 96 well plates (Greiner; #655098). On day 2, the medium was replaced with starvation medium and the cells were pre-incubated for 20 min with either 100 µL of DMSO (Roth; #A994.1) alone at maximal 0.1%, or with the final concentration of the diluted compounds (Table 3). To activate NFκB signaling, cells were stimulated with 20 ng/mL TNFα (Peprotech, Hamburg, Germany; #300-01A). Cell lysis was performed in 20 µL 1× cell lysis buffer according to the manufacturer’s instruction for the Luciferase Assay System (Promega #E1500). NFκB-dependent luminescence was determined as relative light units (RLU) using the microplate reader Spark® (Tecan).

MDA-MB-231 = assay: 2D cell viability (PrestoBlue resazurin) in MDA-MB-231; assay type: cell-based, human; settings: Homo sapiens
Description: Cell viability was determined based on resazurin-reduction in viable cells according to the PrestoBlue^TM Assay. On day 1, MDA-MB-231 (1.5 × 10^4 cells per well or 7.5 × 10^3 cells per well) were seeded into black 96 well plates (Greiner; #655090) in a total volume of 100 µL. On day 2, the compounds or DMSO (Roth; #A994.1) alone at maximal 0.1% were applied (final concentrations after serial dilution shown in Table 3). An amount of 20 µM staurosporine (Sigma-Aldrich; #S5921) served as a positive control. On day 3, the PrestoBlue^TM reagent (Invitrogen^TM, Darmstadt, Germany; #A13262) was applied according to the manufacturer`s instructions. Finally, cell viability-dependent fluorescence was recorded in relative fluorescence units (RFU) with excitation/emission (Exλ/Emλ) at 535/590 nm or 560/590 nm, using the microplate reader Spark® (Tecan).

[3] = tested on: 3D co-culture spheroids of MDA-MB-231 and primary murine CAFs; assay: 3D cell viability (ATP content) in TNBC co-culture spheroids; assay type: cell-based, human MDA-MB-231; settings: for IC50: Mus musculus
Description: On day 1, 3000 cells were seeded into a low-attachment 96 well plate (Greiner; #650970). […] Cell viability was determined based on the ATP content in viable cells according to the manufacturer`s instructions (Promega #G9682). Co-culture spheroids were generated for 72 h before they were grown for another 72 h with or without exposure to the compounds. […] Cell viability-dependent luminescence was determined as relative light units (RLU) using the microplate reader Spark® (Tecan).

CAFs = assay: 2D cell viability in CAFs; assay type: cell-based, murine; settings: Mus musculus, 24 h, read-out: Reduction of Cell Viability 24 h IC50 in CAFs
Description: Table S1 IC50-values for reduction of cell viability determined in CAFs.
Compound Cell Viability 1
1 Cell viability of CAFs was determined 24 h post-treatment with the 2D cell viability assay. CAFs were seeded at a cell density of 2.5 × 10^3 cells per well. Compound concentration was applied in triplicates in a four-fold serial dilution starting at 1000 nM. 2 Duration of treatment. 3 Mean ± SD […]
50 µM. 4 Mean ± SD (n = 3). 5 Mean ± SD (n = 2).

HIF = tested on: HIF; set-up: method as in earlier work; settings: luminal breast cancer cell line T47D; ref 62 (Chen et al.); cited from earlier work
HIF-1α = assay: HIF inhibition, HIF-mediated UnaG reporter expression; assay type: cell-based
Description: The HIF activity after treatment with compound (1s) or with the commercially available NFκB inhibitor BAY 11-7085 ((Hycultec, Beutelsbach, Germany; #HY-10257-10),) for 24 h was determined using the UnaG-reporter gene cell line MDA-MB-468-UnaG. On day 1, 1.5 × 10^4 MDA-MB-468-UnaG cells were seeded into a black 96 well plate (Greiner; #655090). […] HIF-mediated UnaG expression was recorded in z-stacked images using the CQ1 high-content imaging system (Yokogawa, Wehr, Germany; 100× g magnification). Beforehand, the UnaG fluorescence intensity was determined in UnaG-expressing cell clones (Figure S5).
Figure 7 Compound (1s) decreases HIF-dependent gene transcription. MDA-MB-468-UnaG cells were pre-treated for 1 h without (CTRL) or with compound (1s) or BAY 11-7085 (BAY) before being grown (a,b) in the absence (normoxia; CTRL) or (c,d) presence of 100 µM CoCl2 (hypoxia) for another 24 h. (a,c) Representative fluorescence images. Scale bar: 200 µm (b,d) Total fluorescence intensity of HIF-mediated UnaG was normalized to the CTRL group. Statistical difference was calculated with one-way ANOVA (b) vs. CTRL (normoxia) (ns = not significant, * p < 0.05). (d) vs. CTRL (hypoxia) (# p < 0.05); vs. CoCl2 (* p < 0.05, ** p < 0.01, *** p < 0.001). (b,d) Columns represent the mean ± SEM (n = 3).

[4] = Homo sapiens, NFκB-MDA-MB-231-nanoluc cells, 2-h treatment, mean ± SD, read-out: NFκB Inhibition 2 h IC50
[5] = NFκB-MDA-MB-231-firefly cells, 24-h treatment, 20 ng/mL TNFα, mean ± SD
[6] = MDA-MB-231 2D monolayer, 24 h post-treatment, mean ± SD, read-out: Reduction of Cell Viability 24 h IC50
[7] = MDA-MB-231, 3D co-culture spheroids, 72 h treatment, mean ± SD (n = 3), read-out: Reduction of Cell Viability 72 h IC50

| Structure (SMILES) | IC50 (NFκB [1]; [4]) [µM] | IC50 (NFκB [2]; [5]) [µM] | IC50 (MDA-MB-231; [6]) [µM] | IC50 [3, 7] [µM] | IC50 (CAFs; CAFs, mean ± SD (n = 3)) [µM] | HIF induction under low oxygen level (HIF) | further results |
| --- | --- | --- | --- | --- | --- | --- | --- |
| COc1ccc2c(c1)c1cc(O)c(OC)cc1c1c[n+]3c(cc21)CCC3 [Compound (6), anhydrodehydrotylophorinidine] | > 1 | > 1 | > 1 | > 1 | > 1 |  | cytotoxic activity [3]: no cytotoxic activity |
| COc1cc2c3c(c4ccc(O)cc4c2cc1OC)[C@H](O)[C@@H]1CCCN1C3 [Compound (3), tylophoridicine E] | 0.285 ± 0.0604 | 0.115 ± 0.0179 | 0.0553 ± 0.0132 | 0.477 ± 0.16 | 0.0267 ± 0.0031 | blockade of HIF induction |  |
| COc1ccc2c(c1)c1cc(OC)c(OC)cc1c1c[n+]3c(cc21)CCC3 [Compound (5), tylophoridicine D] | > 1 | > 1 | > 1 | > 1 | > 1 | not | cytotoxic activity ([3]; in MDA-MB-231 or in the 3D co-culture spheroids): no cytotoxic activity |
| COc1ccc2c3c(c4cc(OC)c(OC)cc4c2c1)CN1CCC[C@H]1C3 [Compound (4), 2-demethoxytylophorine] |  |  |  |  |  |  | IC50 (NFκB [1]; Homo sapiens, 2 h, read-out: NFκB Inhibition 2 h IC50, NFκB-MDA-MB-231-nanoluc cells, 2-h treatment, mean ± SD): 0.083 ± 0.0147 µM; IC50 (NFκB [2]; 24 h): 0.0283 ± 0.0056 µM; IC50 (MDA-MB-231; MDA-MB-231, 24 h, read-out: Reduction of Cell Viability 24 h IC50, MDA-MB-231 2D monolayer, 24 h post-treatment, mean ± SD): 0.127 ± 0.0214 µM; IC50 ([3]; MDA-MB-231, 72 h, read-out: Reduction of Cell Viability 72 h IC50, 3D co-culture spheroids, 72 h treatment, mean ± SD (n = 3)): 0.518 ± 0.0768 µM; IC50 (CAFs): 0.0335 ± 0.0127 µM |
| CC(C)(C)c1ccc(S(=O)(=O)/C=C/C#N)cc1 [BAY 11-7085, reference compound] |  |  |  |  |  |  | IC50 (NFκB [1]; NFκB-MDA-MB-231-nanoluc cells, 2-h treatment, mean ± SD, read-out: NFκB Inhibition 2 h IC50): 5.5 ± 2 µM; effect on HIF-1α-mediated UnaG expression (HIF-1α; normoxia): no significant effects; CoCl2-induced increase in HIF-1α-activity (HIF-1α; pre-treatment before CoCl2-simulated hypoxia, 6 µM BAY 11-7085, 2, 5, 10, 20 nM (1s)): blocked |
| COc1ccc2c3c(c4cc(OC)c(O)cc4c2c1)CN1CCC[C@H]1[C@H]3O [Compound (2), tylophorinidine] | 0.212 ± 0.0699 | 0.0382 ± 0.0142 | 0.118 ± 0.035 | 0.442 ± 0.0708 | 0.0197 ± 0.0037 | blockade of HIF induction |  |
| COc1ccc2c3c(c4cc(OC)c(OC)cc4c2c1)CN1CCC[C@H]1[C@@H]3O [tylophorinine] |  |  |  |  |  | blockade of HIF induction |  |
